PubChem BioAssay AID2060906 (Molecular Pharmacology Branch, DTP, NCI, 2025)

System: 485176-168-R4-J1-PDC complex spheroid growth
Assay: Anticancer human tumor 485176-168-R4-J1-PDC patient-derived pancreatic adenocarcinoma cell line growth inhibition [RAS]
Conditions: for IC50: curve of first compound; for viability, T/C: stronger effect = lower value
Summary of the method: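 Agents were tested in combination matrices in half-log decrements from a top concentration at or near clinical Cmax (10 microM if undetermined). Targets were multi-cell spheroids of tumour lines plus HUVEC and MSC stromal cells.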
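Further: spheroids exposed to compounds for seven days before readout.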
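Wherever viability, T/C is given: luminescence viability expressed relative to DMSO vehicle wells set as 100%.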

- IC50 (second compound 0.000949 µM): > 1000 nM
- IC50 (second compound 0.003 µM): > 1000 nM
- IC50 (second compound 0.00949 µM): > 1000 nM
- IC50 (second compound 0.03 µM): > 1000 nM
- IC50 (second compound 0.0949 µM): > 1000 nM
- IC50 (second compound 0.3 µM): > 1000 nM
Structure (SMILES): CCN1CCN(Cc2ccc(Nc3ncc(F)c(-c4cc(F)c5nc(C)n(C(C)C)c5c4)n3)nc2)CC1 + CCn1c(-c2cccnc2C(C)OC)c2c3cc(ccc31)N1CCOC(CC(NC(=O)C(C(C)C)N(C)C(=O)C3(F)CCN(C(=O)C#CC(C)(C)N(C)C)CC3)C(=O)N3CCCC(N3)C(=O)OCC(C)(C)C2)C1
- viability, T/C (second compound 0.000949 µM, first compound 0.00316 µM): 93.4%
- viability, T/C (second compound 0.000949 µM, first compound 0.01 µM): 103%
- viability, T/C (second compound 0.000949 µM, first compound 0.0316 µM): 100%
- viability, T/C (second compound 0.000949 µM, first compound 0.1 µM): 83.7%
- viability, T/C (second compound 0.000949 µM, first compound 0.316 µM): 96.5%
- viability, T/C (second compound 0.000949 µM, first compound 1 µM): 64.5%
- viability, T/C (second compound 0.003 µM, first compound 0.00316 µM): 92%
- viability, T/C (second compound 0.003 µM, first compound 0.01 µM): 92.4%
- viability, T/C (second compound 0.003 µM, first compound 0.0316 µM): 89.6%
- viability, T/C (second compound 0.003 µM, first compound 0.1 µM): 99.3%
- viability, T/C (second compound 0.003 µM, first compound 0.316 µM): 74.2%
- viability, T/C (second compound 0.003 µM, first compound 1 µM): 67.8%
- viability, T/C (second compound 0.00949 µM, first compound 0.00316 µM): 101%
- viability, T/C (second compound 0.00949 µM, first compound 0.01 µM): 101%
- viability, T/C (second compound 0.00949 µM, first compound 0.0316 µM): 94.3%
- viability, T/C (second compound 0.00949 µM, first compound 0.1 µM): 89.1%
- viability, T/C (second compound 0.00949 µM, first compound 0.316 µM): 74.5%
- viability, T/C (second compound 0.00949 µM, first compound 1 µM): 75%
- viability, T/C (second compound 0.03 µM, first compound 0.00316 µM): 86.2%
- viability, T/C (second compound 0.03 µM, first compound 0.01 µM): 91%
- viability, T/C (second compound 0.03 µM, first compound 0.0316 µM): 87.6%
- viability, T/C (second compound 0.03 µM, first compound 0.1 µM): 72.8%
- viability, T/C (second compound 0.03 µM, first compound 0.316 µM): 72%
- viability, T/C (second compound 0.03 µM, first compound 1 µM): 67.4%
- viability, T/C (second compound 0.0949 µM, first compound 0.00316 µM): 104%
- viability, T/C (second compound 0.0949 µM, first compound 0.01 µM): 85.2%
- viability, T/C (second compound 0.0949 µM, first compound 0.0316 µM): 84.4%
- viability, T/C (second compound 0.0949 µM, first compound 0.1 µM): 75.9%
- viability, T/C (second compound 0.0949 µM, first compound 0.316 µM): 80%
- viability, T/C (second compound 0.0949 µM, first compound 1 µM): 74%
- viability, T/C (second compound 0.3 µM, first compound 0.00316 µM): 80.7%
- viability, T/C (second compound 0.3 µM, first compound 0.01 µM): 84.4%
- viability, T/C (second compound 0.3 µM, first compound 0.0316 µM): 73.2%
- viability, T/C (second compound 0.3 µM, first compound 0.1 µM): 75.2%
- viability, T/C (second compound 0.3 µM, first compound 0.316 µM): 75.9%
- viability, T/C (second compound 0.3 µM, first compound 1 µM): 57.4%
